Measured values reported in article PMC7113770 (Antiviral Research, 2018).
pIC50: −log10 of the molar value. Read-outs that look alike come from different tables or passages of the source.

What was measured:
[1] = system: full-length HEV p6 clone; assay: Full-length p6 clone, ORF2 immunofluorescence in Huh7.5; type: cell-based, Hepatitis E virus; details: silvestrol 10 nM or RBV, 42 h, added 4 h after transfection
[2] = system: HEV Sar55/S17 replicon (gt1); assay: HEV Sar55/S17 subgenomic replicon replication in Huh7.5
[3] = system: HCV JFH1 subgenomic replicon; assay: HCV JFH1 subgenomic replicon replication in Huh7.5; details: for pIC50 / IC90: Hepatitis C virus; for pIC50: read-out: IC50 (CI); for IC90: read-out: IC90 (CI)
[4] = system: different HEV constructs; assay: Different HEV subgenomic replicons in Huh7.5; details: Hepatitis E virus
[5] = system: HEVp6 replicon (Kernow-C1 p6, gt3); assay: HEVp6 subgenomic replicon; details: for IC90: read-out: IC90 (CI)
[6] = MTT cell viability assay in transfected Huh7.5; type: cell-based, human; details: human, transfected Huh7.5 cells, CC50 (CI), 42 h treatment, Huh7.5, CI 95%
[7] = system: Huh7.5 cells; assay: MTT cell viability assay in transfected Huh7.5; type: cell-based, human
[8] = system: Huh7.5 cells; assay: Trypan blue exclusion viable cell counting; type: cell-based, human; details: silvestrol 10 nM and 100 nM, 24 h, vs untreated cells
[9] = system: HepG2/C3A cells; assay: MTT cell viability in HEVCC infection assay; type: cell-based, human; details: silvestrol 10, 20, 50 nM, all treatment setups
[10] = system: hepatocyte-like cells (HLCs); assay: WST cell viability in hepatocyte-like cells; type: cell-based, human; details: 10 nM silvestrol for 24 h
[11] = system: gt1 HEV (strain Sar-55); type: in vivo; details: 0.3 mg/kg daily intraperitoneal, ten or six days, first days of treatment
[12] = 0.3 mg/kg daily intraperitoneal, monitored period
[13] = system: Ebola virus; details: read-out: IC50 Ebola virus replication; cited from earlier work
[14] = Hepatitis E virus, GT1, Huh7.5, 24 h, read-out: IC50 (CI), 24 h treatment, Huh7.5, CI 95%
[15] = Hepatitis E virus, GT1, Huh7.5, 42 h, read-out: IC50 (CI), 42 h treatment, Huh7.5, CI 95%
[16] = Hepatitis E virus, GT3, Huh7.5, 24 h, read-out: IC50 (CI), 24 h treatment, Huh7.5, CI 95%
[17] = Hepatitis E virus, GT3, Huh7.5, 24 h
[18] = Hepatitis E virus, GT3, Huh7.5, 42 h, read-out: IC50 (CI), 42 h treatment, Huh7.5, CI 95%
[19] = Hepatitis E virus, GT3, Huh7.5, 42 h

Compound	ORF2 positive cells (immunofluorescence) [1]	pIC50 [2, 14]	pIC50 [2, 15]	pIC50 ([3]; Huh7.5, 24 h)	IC90 ([3]; Huh7.5, 24 h)	pIC50 ([3]; Huh7.5, 42 h)	pIC50 [5, 16]	IC90 [5, 17]	pIC50 [5, 18]	IC90 [5, 19]	other results
NC(=O)c1ncn([C@@H]2O[C@H](CO)[C@@H](O)[C@H]2O)n1 [Ribavirin]	highly reduced	4.37	4.52	4.91	128000 nM	4.20	5.09	244000 nM	5.16	50400 nM	pIC50 ([2]; read-out: IC50 (CI), 24 h treatment, Huh7.5, CI 95%): 4.37; pIC50 ([4]; GT1, Huh7.5, 24 h, read-out: IC50 HEV replication): 4.92 to 5.10
COC(=O)[C@H]1[C@@H](O)[C@@]2(O)c3c(OC)cc(O[C@@H]4O[C@@H]([C@H](O)CO)CO[C@H]4OC)cc3O[C@@]2(c2ccc(OC)cc2)[C@@H]1c1ccccc1 [Silvestrol, silvestrol]	highly reduced	8.18	8.50	7.61	128 nM	7.15	8.35	64.7 nM	8.54	27.3 nM	CC50 at 42 h [6]: 24.8 nM; cytotoxic concentration 50 (CC50) ([7]; 24 h treatment, Huh7.5): did not reach a cytotoxic concentration 50 (CC50); CC50 ([7]; read-out: CC50 (CI), 42 h treatment, Huh7.5, CI 95%): 24.8 nM; viable cells (trypan blue cell counting) [8]: no significant reductions; cell viability (MTT) [9]: not reduced; cytotoxicity (WST assay) in HLCs [10]: without cytotoxicity; HEV RNA in the feces [11]: rapid decline; body weight [12]: No changes; pIC50 [13]: > 9.00; IC90 ([2]; Hepatitis E virus, GT1, Huh7.5, 42 h, read-out: IC90 (CI)): 52.8 nM; IC90 ([3]; Huh7.5, 42 h): 518 nM; susceptibility of HCV reference replicon compared with HEV ([3]; Huh7.5, 24 h): less susceptible; pIC50 ([4]; Huh7.5, 24 h, read-out: IC50 for the different HEV constructs): 8.18 to 8.40; selectivity index ([5]; 42 h, p6 strain, CC50/IC50): about 8.6; pIC50 ([5]; read-out: IC50 (CI), 42 h treatment, Huh7.5, CI 95%): 8.54
